Results: ChEMBL document CHEMBL1155444, “(Bis)urea and (bis)thiourea inhibitors of lysine-specific demethylase 1 as epigenetic modulators” (J Med Chem, 2010)
The source made the active and inactive calls. The rule behind the calls is not given here.

Experiments:
Type in all cases: cell-based
Settings in all cases: HCT-116
[1] = target: Lysine-specific histone demethylase 1A (Homo sapiens) (UniProt O60341); assay: Inhibition of LSD1 in human HCT116 cells assessed as increase in cellular histone 3 methyllysine 4 level treated at increasing concentration after 48 hrs
[2] = target: Lysine-specific histone demethylase 1A (Homo sapiens) (UniProt O60341); assay: Inhibition of LSD1 in human HCT116 cells assessed as increase in cellular histone 3 dimethyllysine 9 level treated at increasing concentration after 48 hrs
[3] = target: Lysine-specific histone demethylase 1A (Homo sapiens) (UniProt O60341); assay: Inhibition of LSD1 in human HCT116 cells assessed as increase in cellular histone 3 dimethyllysine 4 level treated at increasing concentration after 48 hrs

| inhibition [1] | inhibition [2] | inhibition [3] | SMILES |
| --- | --- | --- | --- |
| Active | inactive | Active | N=C(NCCCNCCCCCCCNCCCNC(=N)NC(=N)NCCC(c1ccccc1)c1ccccc1)NC(=N)NCCC(c1ccccc1)c1ccccc1 |
| Active | inactive | Active | C/N=C(\NC)NCCCNCCCNCCCN/C(=N/C)NC |
